Reference: US12655125B2 (SIRONAX LTD., priority 2020, dated 2026)

Each compound was assayed on HT-29 cells (assay: HT29 Cells 0FBS Assay In Vitro (TNF-α/SMAC mimetic/zVAD-FMK induced necroptosis, CellTiter-Glo cell viability)). Conditions: Homo sapiens, HT-29, 20 h, read-out: Cell activity (EC50) of Compounds 1-116.
Assay type: cell-based
Summary of the method: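 Viability was measured by ATP luminescence (CellTiter-Glo) after 20 h at 37° C of compound exposure in 10-point, 1:3 dilutions. Necroptosis in FBS-free HT-29 cultures was driven by a TNF-α (10 ng/ml), SMAC mimetic (6 μM) and zVAD-FMK (10 μM) cocktail. EC50 values are geometric means from duplicate curves.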
For `CN(C)Cc1cnn(C)c1-c1cc(OC2CN(C(=O)N3N=CC[C@H]3c3cc(F)cc(F)c3)C2)c(F)cn1` [compound 79, (S)-(5-(3,5-difluorophenyl)-4,5-dihydro-1H-pyrazol-1-yl)(3-((2-(4-((dimethylamino)methyl)-1-methyl-1H-pyrazol-5-yl)-5-fluoropyridin-4-yl)oxy)azetidin-1-yl)methanone], the EC50 was 0.1 to 100 nM.

Same assay, conditions: Homo sapiens; HT-29 cells, FBS free medium, TNF-α (10 ng/ml), SMAC mimetic (6 uM), zVAD-FMK (10 μM), 20 hours; geometric mean EC50; read-out: Cell activity (EC50) of Compounds 1-116
`Cn1nccc1-c1cc(OC2CN(C(=O)N3N=CC[C@H]3c3cc(F)cc(F)c3)C2)c(F)cn1` [compound 3, (S)-(5-(3,5-difluorophenyl)-4,5-dihydro-1H-pyrazol-1-yl)(3-((5-fluoro-2-(1-methyl-1H-pyrazol-5-yl)pyridin-4-yl)oxy)azetidin-1-yl)methanone] showed an EC50 of 0.1 to 100 nM.
In the case of `Cc1nn(CC(=O)N(C)C)c(C)c1-c1ncc(F)c(OC2CN(C(=O)N3N=CC[C@H]3c3cc(F)cc(F)c3)C2)n1` [compound 100, (S)-2-(4-(4-((1-(5-(3,5-difluorophenyl)-4,5-dihydro-1H-pyrazole-1-carbonyl)azetidin-3-yl)oxy)-5-fluoropyrimidin-2-yl)-3,5-dimethyl-1H-pyrazol-1-yl)-N,N-dimethylacetamide], the EC50 is reported as 0.1 to 100 nM.
For `Cc1nn(-c2cc(OC3CN(C(=O)N4N=CC[C@H]4c4cc(F)cc(F)c4)C3)c(F)cn2)c(C)c1C(N)=O` [compound 110, (S)-1-(4-((1-(5-(3,5-difluorophenyl)-4,5-dihydro-1H-pyrazole-1-carbonyl)azetidin-3-yl)oxy)-5-fluoropyridin-2-yl)-3,5-dimethyl-1H-pyrazole-4-carboxamide], the EC50 was 0.1 to 100 nM.
For `Cc1nn(CC(N)=O)c(C)c1-c1cc(OC2CN(C(=O)N3N=CC[C@H]3c3cc(F)cc(F)c3)C2)c(F)cn1` [compound 94, (S)-2-(4-(4-((1-(5-(3,5-difluorophenyl)-4,5-dihydro-1H-pyrazole-1-carbonyl)azetidin-3-yl)oxy)-5-fluoropyridin-2-yl)-3,5-dimethyl-1H-pyrazol-1-yl)acetamide], the EC50 was 0.1 to 100 nM.
`CNC(=O)CNc1cnn(C)c1-c1cc(OC2CN(C(=O)N3N=CC[C@H]3c3cc(F)cc(F)c3)C2)c(F)cn1` [compound 61, (S)-2-((5-(4-((1-(5-(3,5-difluorophenyl)-4,5-dihydro-1H-pyrazole-1-carbonyl)azetidin-3-yl)oxy)-5-fluoropyridin-2-yl)-1-methyl-1H-pyrazol-4-yl)amino)-N-methylacetamide] was tested, and the EC50 was 0.1 to 100 nM.
For `CN(C)c1cnn(C)c1-c1cc(OC2CN(C(=O)N3N=CC[C@H]3c3cc(F)cc(F)c3)C2)c(F)cn1` [compound 55, (S)-(5-(3,5-difluorophenyl)-4,5-dihydro-1H-pyrazol-1-yl)(3-((2-(4-(dimethylamino)-1-methyl-1H-pyrazol-5-yl)-5-fluoropyridin-4-yl)oxy)azetidin-1-yl)methanone], the EC50 was 0.1 to 100 nM.
`Cn1ncc(C(=O)O)c1-c1cc(OC2CN(C(=O)N3N=CC[C@H]3c3cc(F)cc(F)c3)C2)c(F)cn1` [compound 65, (S)-5-(4-((1-(5-(3,5-difluorophenyl)-4,5-dihydro-1H-pyrazole-1-carbonyl)azetidin-3-yl)oxy)-5-fluoropyridin-2-yl)-1-methyl-1H-pyrazole-4-carboxylic acid] showed an EC50 of 1000 to 10000 nM.
For `Cn1ncc(NCC(=O)N2CCOCC2)c1-c1cc(OC2CN(C(=O)N3N=CC[C@H]3c3cc(F)cc(F)c3)C2)c(F)cn1` [compound 62, (S)-2-((5-(4-((1-(5-(3,5-difluorophenyl)-4,5-dihydro-1H-pyrazole-1-carbonyl)azetidin-3-yl)oxy)-5-fluoropyridin-2-yl)-1-methyl-1H-pyrazol-4-yl)amino)-1-morpholinoethan-1-one], the EC50 was 0.1 to 100 nM.

Same assay, conditions: Homo sapiens; HT-29 cells, FBS free medium, TNF-α (10 ng/ml), SMAC mimetic (6 uM), zVAD-FMK (10 μM), 20 hours; geometric mean EC50; read-out: Cell activity (EC50) of Compounds 117-281
`Cc1nn(-c2ncc(F)c(OC3CN(C(=O)N4N=CC[C@H]4c4cc(F)cc(F)c4)C3)n2)c(C)c1C(N)=O` [compound 276, (S)-1-(4-((1-(5-(3,5-difluorophenyl)-4,5-dihydro-1H-pyrazole-1-carbonyl)azetidin-3-yl)oxy)-5-fluoropyrimidin-2-yl)-3,5-dimethyl-1H-pyrazole-4-carboxamide] gave an EC50 of 0.1 to 100 nM.
`Cn1nc(CO)cc1-c1cc(OC2CN(C(=O)N3N=CC[C@H]3c3cc(F)cc(F)c3)C2)c(F)cn1` [compound 174, (S)-(5-(3,5-difluorophenyl)-4,5-dihydro-1H-pyrazol-1-yl)(3-((5-fluoro-2-(3-(hydroxymethyl)-1-methyl-1H-pyrazol-5-yl)pyridin-4-yl)oxy)azetidin-1-yl)methanone] was tested, and the EC50 was 0.1 to 100 nM.
In the case of `Cc1c(NC(=O)C2CC2)nn(C)c1-c1cc(OC2CN(C(=O)N3N=CC[C@H]3c3cc(F)cc(F)c3)C2)c(F)cn1` [compound 144, (S)—N-(5-(4-((1-(5-(3,5-difluorophenyl)-4,5-dihydro-1H-pyrazole-1-carbonyl)azetidin-3-yl)oxy)-5-fluoropyridin-2-yl)-1,4-dimethyl-1H-pyrazol-3-yl)cyclopropanecarboxamide], the EC50 is reported as 0.1 to 100 nM.
For `Cc1c(N2CC(O)C2)nn(C)c1-c1cc(OC2CN(C(=O)N3N=CC[C@H]3c3cc(F)cc(F)c3)C2)c(F)cn1` [compound 213, (S)-(5-(3,5-difluorophenyl)-4,5-dihydro-1H-pyrazol-1-yl)(3-((5-fluoro-2-(3-(3-hydroxyazetidin-1-yl)-1,4-dimethyl-1H-pyrazol-5-yl)pyridin-4-yl)oxy)azetidin-1-yl)methanone], the EC50 was 0.1 to 100 nM.
`Cc1nn(-c2cc(OC3CN(C(=O)N4N=CCC4c4cc(F)cc(F)c4)C3)c(F)cn2)c(C)c1C(N)=O` (centres unmarked) [compound 234, 1-(4-((1-(5-(3,5-difluorophenyl)-4,5-dihydro-1H-pyrazole-1-carbonyl)azetidin-3-yl)oxy)-5-fluoropyridin-2-yl)-3,5-dimethyl-1H-pyrazole-4-carboxamide] was tested, and the EC50 was 0.1 to 100 nM.
`Cc1ccc(C)n1-c1cc(OC2CN(C(=O)N3N=CC[C@H]3c3cc(F)cc(F)c3)C2)c(F)cn1` [compound 147, (S)-(5-(3,5-difluorophenyl)-4,5-dihydro-1H-pyrazol-1-yl)(3-((2-(2,5-dimethyl-1H-pyrrol-1-yl)-5-fluoropyridin-4-yl)oxy)azetidin-1-yl)methanone] was tested, and the EC50 was 0.1 to 100 nM.
`Cc1nn(-c2cc(OC3CN(C(=O)N4N=CC[C@H]4c4cc(F)cc(F)c4)C3)c(F)cn2)c(C)c1C(=O)N(C)C` [compound 192, (S)-1-(4-((1-(5-(3,5-difluorophenyl)-4,5-dihydro-1H-pyrazole-1-carbonyl)azetidin-3-yl)oxy)-5-fluoropyridin-2-yl)-N,N,3,5-tetramethyl-1H-pyrazole-4-carboxamide] was tested, and the EC50 was 0.1 to 100 nM.
`Cc1n[nH]c(N)c1-c1cc(OC2CN(C(=O)N3N=CC[C@H]3c3cc(F)cc(F)c3)C2)c(F)cn1` [compound 205, (S)-(3-((2-(5-amino-3-methyl-1H-pyrazol-4-yl)-5-fluoropyridin-4-yl)oxy)azetidin-1-yl)(5-(3,5-difluorophenyl)-4,5-dihydro-1H-pyrazol-1-yl)methanone] gave an EC50 of 0.1 to 100 nM.
`Cc1nn(C2CCNCC2)c(C)c1-c1cc(OC2CN(C(=O)N3N=CC[C@H]3c3cc(F)cc(F)c3)C2)c(F)cn1` [compound 181] gave an EC50 of 0.1 to 100 nM.
Compound `Cc1nn(-c2cc(OC3CN(C(=O)N4N=CC[C@H]4c4cc(F)cc(F)c4)C3)c(F)cn2)c(C)c1S(=O)(=O)NC1COC1` [compound 240] has an EC50 of 0.1 to 100 nM.
`Cc1nn(-c2cc(OC3CN(C(=O)N4N=CC[C@H]4c4cc(F)cc(F)c4)C3)c(F)cn2)c(C)c1C(=O)N1CCC1` [compound 195, (S)-azetidin-1-yl(1-(4-((1-(5-(3,5-difluorophenyl)-4,5-dihydro-1H-pyrazole-1-carbonyl)azetidin-3-yl)oxy)-5-fluoropyridin-2-yl)-3,5-dimethyl-1H-pyrazol-4-yl)methanone] gave an EC50 of 0.1 to 100 nM.
